Source: ChEMBL document CHEMBL1201862, “PubChem BioAssay data set” (2004)
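All cell lines were grown in 96-well plates and treated with compound for 48 hours. At the GI50, growth is halved.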 Active and inactive are the calls of the source. No stated cut-off is given here; in the data, active = GI50 up to about 1.1 µM and inactive = higher.

Key:
Assay in all cases: NCI anticancer screen, dose series, 48 h
SNB-75 = test system: SNB-75
K562 = test system: K562
OVCAR-8 = test system: OVCAR-8
NCI-H522 = test system: NCI-H522
SK-OV-3 = test system: SK-OV-3
CCRF-CEM = test system: CCRF-CEM
786-0 = test system: 786-0
SF-539 = test system: SF-539
U-251 = test system: U-251
MDA-N = test system: MDA-N
UACC-257 = test system: UACC-257
OVCAR-3 = test system: OVCAR-3
M14 = test system: M14
EKVX = test system: EKVX
PC-3 = test system: PC-3
MDA-MB-435 = test system: MDA-MB-435
NCI-H460 = test system: NCI-H460
T47D = test system: T47D
SK-MEL-28 = test system: SK-MEL-28
HOP-62 = test system: HOP-62
NCI-H23 = test system: NCI-H23
BT-549 = test system: BT-549
SK-MEL-5 = test system: SK-MEL-5
KM12 = test system: KM12
SF-295 = test system: SF-295
IGROV-1 = test system: IGROV-1
SNB-19 = test system: SNB-19
OVCAR-5 = test system: OVCAR-5
NCI/ADR-RES = test system: NCI/ADR-RES
COLO 205 = test system: COLO 205
OVCAR-4 = test system: OVCAR-4
HT-29 = test system: HT-29
SN12C = test system: SN12C
DU-145 = test system: DU-145
SW-620 = test system: SW-620
MOLT-4 = test system: MOLT-4
HCT-15 = test system: HCT-15
HCC 2998 = test system: HCC 2998
MDA-MB-231 = test system: MDA-MB-231
TK-10 = test system: TK-10
HCT-116 = test system: HCT-116
A549 = test system: A549
UACC-62 = test system: UACC-62
HL-60 = test system: HL-60
LOX IMVI = test system: LOX IMVI
SF-268 = test system: SF-268
HOP-92 = test system: HOP-92
SR = test system: SR
MCF7 = test system: MCF7
CAKI-1 = test system: CAKI-1
SK-MEL-2 = test system: SK-MEL-2
Hs-578T = test system: Hs-578T
ACHN = test system: ACHN
RPMI-8226 = test system: RPMI-8226
UO-31 = test system: UO-31
RXF 393 = test system: RXF 393
Malme-3M = test system: Malme-3M
NCI-H226 = test system: NCI-H226

With `c1ccc2c(c1)SCCCSCCCS2` the GI50 (SNB-75) was > 100 µM (inactive), the GI50 (K562) was > 100 µM (inactive) and the GI50 (OVCAR-8) was > 100 µM (inactive). The GI50 (NCI-H522) was > 100 µM (inactive), the GI50 (SK-OV-3) was > 100 µM (inactive) and the GI50 (CCRF-CEM) was > 100 µM (inactive). For the same compound, the GI50 (786-0) was > 100 µM (inactive), the GI50 (SF-539) was > 100 µM (inactive) and the GI50 (U-251) was > 100 µM (inactive). For the same compound, the GI50 (MDA-N) was > 100 µM (inactive), the GI50 (UACC-257) was > 100 µM (inactive) and the GI50 (OVCAR-3) was > 100 µM (inactive). The GI50 (M14) was > 100 µM (inactive), the GI50 (EKVX) was > 100 µM (inactive) and the GI50 (PC-3) was > 100 µM (inactive). For the same compound, the GI50 (MDA-MB-435) was > 100 µM (inactive), the GI50 (NCI-H460) was > 100 µM (inactive) and the GI50 (T47D) was > 100 µM (inactive). The GI50 (SK-MEL-28) was > 100 µM (inactive), the GI50 (HOP-62) was > 100 µM (inactive) and the GI50 (NCI-H23) was > 100 µM (inactive). For the same compound, the GI50 (BT-549) was > 100 µM (inactive), the GI50 (SK-MEL-5) was > 100 µM (inactive) and the GI50 (KM12) was > 100 µM (inactive). For the same compound, the GI50 (SF-295) was > 100 µM (inactive), the GI50 (IGROV-1) was > 100 µM (inactive) and the GI50 (SNB-19) was > 100 µM (inactive). For the same compound, the GI50 (OVCAR-5) was > 100 µM (inactive), the GI50 (NCI/ADR-RES) was > 100 µM (inactive) and the GI50 (COLO 205) was 74.5 µM (inactive). For the same compound, the GI50 (OVCAR-4) was 76 µM (inactive), the GI50 (HT-29) was > 10 µM (inactive) and the GI50 (SN12C) was > 100 µM (inactive). The GI50 (DU-145) was > 100 µM (inactive), the GI50 (SW-620) was > 100 µM (inactive) and the GI50 (MOLT-4) was 67.6 µM (inactive). The GI50 (HCT-15) was greater than 100 µM, the GI50 (HCC 2998) was > 100 µM (inactive) and the GI50 (MDA-MB-231) was 65.3 µM (inactive). For the same compound, the GI50 (TK-10) was > 100 µM (inactive), the GI50 (HCT-116) was 63.4 µM (inactive) and the GI50 (A549) was > 100 µM (inactive). The GI50 (UACC-62) was > 100 µM (inactive), the GI50 (HL-60) was 28.1 µM (inactive) and the GI50 (LOX IMVI) was > 100 µM (inactive). For the same compound, the GI50 (SF-268) was > 100 µM (inactive), the GI50 (HOP-92) was 60.1 µM (inactive) and the GI50 (SR) was 50.5 µM (inactive). For the same compound, the GI50 (MCF7) was > 100 µM (inactive).
For `Cn1c(=O)n2n(c1=O)C([S+]([O-])c1ccccc1)C2` (stereo not given), the GI50 (SNB-75) was > 100 µM (inactive), the GI50 (K562) was > 100 µM (inactive) and the GI50 (OVCAR-8) was > 100 µM (inactive). For the same compound, the GI50 (NCI-H522) was 30.8 µM (inactive), the GI50 (SK-OV-3) was > 100 µM (inactive) and the GI50 (CCRF-CEM) was 20.2 µM (inactive). The GI50 (786-0) was > 100 µM (inactive), the GI50 (SF-539) was > 100 µM (inactive) and the GI50 (CAKI-1) was > 100 µM (inactive). The GI50 (U-251) was > 100 µM (inactive), the GI50 (MDA-N) was > 100 µM (inactive) and the GI50 (UACC-257) was > 100 µM (inactive). For the same compound, the GI50 (OVCAR-3) was > 100 µM (inactive), the GI50 (SK-MEL-2) was > 100 µM (inactive) and the GI50 (M14) was > 100 µM (inactive). The GI50 (EKVX) was > 100 µM (inactive), the GI50 (PC-3) was 33.4 µM (inactive) and the GI50 (MDA-MB-435) was > 100 µM (inactive). The GI50 (NCI-H460) was > 100 µM (inactive), the GI50 (SK-MEL-28) was > 100 µM (inactive) and the GI50 (Hs-578T) was > 100 µM (inactive). The GI50 (HOP-62) was > 100 µM (inactive), the GI50 (ACHN) was > 100 µM (inactive) and the GI50 (NCI-H23) was > 100 µM (inactive). For the same compound, the GI50 (RPMI-8226) was > 100 µM (inactive), the GI50 (BT-549) was > 100 µM (inactive) and the GI50 (SK-MEL-5) was > 100 µM (inactive). The GI50 (KM12) was 42.8 µM (inactive), the GI50 (SF-295) was > 100 µM (inactive) and the GI50 (IGROV-1) was 32.1 µM (inactive). For the same compound, the GI50 (SNB-19) was > 100 µM (inactive), the GI50 (OVCAR-5) was > 100 µM (inactive) and the GI50 (NCI/ADR-RES) was > 100 µM (inactive). The GI50 (COLO 205) was > 100 µM (inactive), the GI50 (OVCAR-4) was > 100 µM (inactive) and the GI50 (HT-29) was > 100 µM (inactive). For the same compound, the GI50 (SN12C) was > 100 µM (inactive), the GI50 (DU-145) was > 100 µM (inactive) and the GI50 (SW-620) was > 100 µM (inactive). The GI50 (MOLT-4) was 18.5 µM (inactive), the GI50 (HCT-15) was greater than 100 µM and the GI50 (HCC 2998) was > 100 µM (inactive). For the same compound, the GI50 (MDA-MB-231) was > 100 µM (inactive), the GI50 (UO-31) was > 100 µM (inactive) and the GI50 (TK-10) was > 100 µM (inactive). The GI50 (HCT-116) was > 100 µM (inactive), the GI50 (A549) was 65.2 µM (inactive) and the GI50 (UACC-62) was > 100 µM (inactive). For the same compound, the GI50 (LOX IMVI) was 38.9 µM (inactive), the GI50 (SF-268) was > 100 µM (inactive) and the GI50 (RXF 393) was > 100 µM (inactive). The GI50 (HOP-92) was > 100 µM (inactive), the GI50 (SR) was 38.3 µM (inactive) and the GI50 (MCF7) was > 100 µM (inactive).
With `C=C(C)[C@@]1(O)O[C@H]2C[C@@]3(C)OC(=CC3=O)/C(C)=C\[C@@H]3OC(=O)[C@@]1(C)[C@H]32` the GI50 (SNB-75) was 23.8 µM (inactive), the GI50 (K562) was 4.67 µM (inactive) and the GI50 (Malme-3M) was 18.5 µM (inactive). For the same compound, the GI50 (OVCAR-8) was 27 µM (inactive), the GI50 (NCI-H522) was 3.61 µM (inactive) and the GI50 (SK-OV-3) was 47.4 µM (inactive). For the same compound, the GI50 (CCRF-CEM) was 3.94 µM (inactive), the GI50 (786-0) was 11.7 µM (inactive) and the GI50 (SF-539) was 23.9 µM (inactive). The GI50 (CAKI-1) was 19.6 µM (inactive), the GI50 (U-251) was 16.1 µM (inactive) and the GI50 (UACC-257) was 23.2 µM (inactive). For the same compound, the GI50 (OVCAR-3) was 15.5 µM (inactive), the GI50 (SK-MEL-2) was 14 µM (inactive) and the GI50 (M14) was 14.9 µM (inactive). For the same compound, the GI50 (EKVX) was 29.2 µM (inactive), the GI50 (PC-3) was 16.3 µM (inactive) and the GI50 (MDA-MB-435) was 14.7 µM (inactive). The GI50 (NCI-H460) was 22.8 µM (inactive), the GI50 (T47D) was 21.3 µM (inactive) and the GI50 (SK-MEL-28) was 12.6 µM (inactive). The GI50 (Hs-578T) was 45.8 µM (inactive), the GI50 (HOP-62) was 21.6 µM (inactive) and the GI50 (ACHN) was 18.2 µM (inactive). For the same compound, the GI50 (NCI-H23) was 15.3 µM (inactive), the GI50 (RPMI-8226) was 7.94 µM (inactive) and the GI50 (BT-549) was 8.89 µM (inactive). For the same compound, the GI50 (SK-MEL-5) was 13.3 µM (inactive), the GI50 (KM12) was 15.1 µM (inactive) and the GI50 (SF-295) was 23.7 µM (inactive). For the same compound, the GI50 (IGROV-1) was 15 µM (inactive), the GI50 (SNB-19) was > 58.7 µM (inactive) and the GI50 (OVCAR-5) was 14 µM (inactive). The GI50 (NCI/ADR-RES) was 13.1 µM (inactive), the GI50 (COLO 205) was 16 µM (inactive) and the GI50 (OVCAR-4) was 20.7 µM (inactive). The GI50 (HT-29) was 19.5 µM (inactive), the GI50 (SN12C) was 15 µM (inactive) and the GI50 (DU-145) was 37.7 µM (inactive). The GI50 (SW-620) was 4.9 µM (inactive), the GI50 (MOLT-4) was 7.8 µM (inactive) and the GI50 (NCI-H226) was 39.3 µM (inactive). For the same compound, the GI50 (HCT-15) was 9.25 µM, the GI50 (HCC 2998) was 15.3 µM (inactive) and the GI50 (MDA-MB-231) was 17 µM (inactive). For the same compound, the GI50 (UO-31) was 30.1 µM (inactive), the GI50 (TK-10) was 22.9 µM (inactive) and the GI50 (HCT-116) was 7.64 µM (inactive). For the same compound, the GI50 (A549) was 29.2 µM (inactive), the GI50 (UACC-62) was 14.1 µM (inactive) and the GI50 (HL-60) was 14.2 µM (inactive). For the same compound, the GI50 (LOX IMVI) was 6.31 µM (inactive), the GI50 (SF-268) was 23 µM (inactive) and the GI50 (RXF 393) was 11.1 µM (inactive). The GI50 (HOP-92) was 20.4 µM (inactive), the GI50 (SR) was 6.97 µM (inactive) and the GI50 (MCF7) was 11.6 µM (inactive).
